# Patent US11331369B2, “Endoparasitic depsipeptides” (Zoetis Services LLC, priority 2017, dated 2022)
# Test system: microfilariae of Dirofilaria immitis
# Assay: Dirofilaria immitis, Microfilaria (DiMF) In vitro Assay
# Format: cell-based
# Conditions: 72 h, read-out: DiMF Minimum Effective Dose (MED), approximately 72 hours incubation, microfilariae assessed for survival or paralysis
row,Compound,minimal effective concentration
1,"CC(C)C[C@H]1C(=O)O[C@H](Cc2cccc(Cn3nc(C#N)cc3C#N)c2)C(=O)N(C)[C@@H](CC(C)C)C(=O)O[C@H](C)C(=O)N(C)[C@@H](CC(C)C)C(=O)O[C@H](Cc2cccc(Cn3nc(C#N)cc3C#N)c2)C(=O)N(C)[C@@H](CC(C)C)C(=O)O[C@H](C)C(=O)N1C [Example 4-14, 1,1′-(((((2R,5S,8R,11S,14R,17S,20R,23S)-5, 11,17,23-tetraisobutyl-4,8,10,16,20,22-hexamethyl-3,6,9,12,15,18,21,24-octaoxo-1,7,13,19-tetraoxa-4,10,16,22-tetraazacyclotetracosane-2,14-diyl)bis(methylene))bis(3,1-phenylene))bis(methylene))bis(1H-pyrazole-3,5-dicarbonitrile)]",0.001 to 0.01 µM
2,"CC(C)C[C@H]1C(=O)O[C@H](Cc2cccc(Cn3cc(-c4ccccn4)cn3)c2)C(=O)N(C)[C@@H](CC(C)C)C(=O)O[C@H](C)C(=O)N(C)[C@@H](CC(C)C)C(=O)O[C@H](Cc2cccc(Cn3cc(-c4ccccn4)cn3)c2)C(=O)N(C)[C@@H](CC(C)C)C(=O)O[C@H](C)C(=O)N1C [Example 4-16, (3S,6R,9S,12R,15S,18R,21S,24R)-3,9,15,21-tetraisobutyl-4,6,10,16,18,22-hexamethyl-12,24-bis(3-((4-(pyridin-2-yl)-1H-pyrazol-1-yl)methyl)benzyl)-1,7,13,19-tetraoxa-4,10,16,22-tetraazacyclotetracosan-2,5,8,11,14,17,20,23-octaone]",0.01 to 0.1 µM
3,"CC(C)C[C@H]1C(=O)O[C@H](Cc2cccc(Cn3cc(O)cn3)c2)C(=O)N(C)[C@@H](CC(C)C)C(=O)O[C@H](C)C(=O)N(C)[C@@H](CC(C)C)C(=O)O[C@H](Cc2cccc(Cn3cc(O)cn3)c2)C(=O)N(C)[C@@H](CC(C)C)C(=O)O[C@H](C)C(=O)N1C [Example 4-17, (3S,6R,9S,12R,15S,18R,21S,24R)-6,18-bis(3-((4-hydroxy-1H-pyrazol-1-yl)methyl)benzyl)-3,9,15,21-tetraisobutyl-4,10,12,16,22,24-hexamethyl-1,7,13,19-tetraoxa-4,10,16,22-tetraazacyclotetracosan-2,5,8,11,14,17,20,23-octaone]",0.01 to 0.1 µM
4,"CC(C)C[C@H]1C(=O)O[C@H](Cc2cccc(Cn3cc(F)cn3)c2)C(=O)N(C)[C@@H](CC(C)C)C(=O)O[C@H](C)C(=O)N(C)[C@@H](CC(C)C)C(=O)O[C@H](Cc2ccccc2)C(=O)N(C)[C@@H](CC(C)C)C(=O)O[C@H](C)C(=O)N1C [Example 5-1, (3S,6R,9S,12R,15S,18R,21S,24R)-6-benzyl-18-(3-((4-fluoro-1H-pyrazol-1-yl)methyl)benzyl)-3,9,15,21-tetraisobutyl-4,10,12,16,22,24-hexamethyl-1,7,13,19-tetraoxa-4,10,16,22-tetraazacyclotetracosan-2,5,8,11,14,17,20,23-octaone]",0.001 to 0.01 µM
5,"CC(C)C[C@H]1C(=O)O[C@H](Cc2cccc(Cn3cc([N+](=O)[O-])cn3)c2)C(=O)N(C)[C@@H](CC(C)C)C(=O)O[C@H](C)C(=O)N(C)[C@@H](CC(C)C)C(=O)O[C@H](Cc2ccccc2)C(=O)N(C)[C@@H](CC(C)C)C(=O)O[C@H](C)C(=O)N1C [Example 5-2, (3S,6R,9S,12R,15S,18R,21S,24R)-6-benzyl-3,9,15,21-tetraisobutyl-4,10,12,16,22,24-hexamethyl-18-(3-((4-nitro-1H-pyrazol-1-yl)methyl)benzyl)-1,7,13,19-tetraoxa-4,10,16,22-tetraazacyclotetracosan-2,5,8, 11,14,17,20,23-octaone]",0.001 to 0.01 µM
6,"CC(C)C[C@H]1C(=O)O[C@H](Cc2cccc(Cn3cc(O)cn3)c2)C(=O)N(C)[C@@H](CC(C)C)C(=O)O[C@H](C)C(=O)N(C)[C@@H](CC(C)C)C(=O)O[C@H](Cc2ccccc2)C(=O)N(C)[C@@H](CC(C)C)C(=O)O[C@H](C)C(=O)N1C [Example 5-3, (3S,6R,9S,12R,15S,18R,21S,24R)-6-benzyl-18-(3-((4-hydroxy-1H-pyrazol-1-yl)methyl)benzyl)-3,9,15,21-tetraisobutyl-4,10,12,16,22,24-hexamethyl-1,7,13,19-tetraoxa-4,10,16,22-tetraazacyclotetracosan-2,5,8,11,14,17,20,23-octaone]",0.01 to 0.1 µM
7,"CC(C)C[C@H]1C(=O)O[C@H](Cc2cccc(Cn3nc(CO)cc3CO)c2)C(=O)N(C)[C@@H](CC(C)C)C(=O)O[C@H](C)C(=O)N(C)[C@@H](CC(C)C)C(=O)O[C@H](Cc2ccccc2)C(=O)N(C)[C@@H](CC(C)C)C(=O)O[C@H](C)C(=O)N1C [Example 5-4, (3S,6R,9S,12R,15S,18R,21S,24R)-6-benzyl-18-(3-((3,5-bis(hydroxymethyl)-1H-pyrazol-1-yl)methyl)benzyl)-3,9,15,21-tetraisobutyl-4,10,12,16,22,24-hexamethyl-1,7,13,19-tetraoxa-4,10,16,22-tetraazacyclotetracosan-2,5,8,11,14,17,20,23-octaone]",0.01 to 0.1 µM
8,"CC(C)C[C@H]1C(=O)O[C@H](Cc2cccc(Cn3nc(C4CC4)cc3C3CC3)c2)C(=O)N(C)[C@@H](CC(C)C)C(=O)O[C@H](C)C(=O)N(C)[C@@H](CC(C)C)C(=O)O[C@H](Cc2ccccc2)C(=O)N(C)[C@@H](CC(C)C)C(=O)O[C@H](C)C(=O)N1C [Example 5-6, (3S,6R,9S,12R,15S,18R,21S,24R)-6-benzyl-18-(3-((3,5-dicyclopropyl-1H-pyrazol-1-yl)methyl)benzyl)-3,9,15,21-tetraisobutyl-4,10,12,16,22,24-hexamethyl-1,7,13,19-tetraoxa-4,10,16,22-tetraazacyclotetracosan-2,5,8,11,14,17,20,23-octaone]",0.01 to 0.1 µM
9,"Cc1nccn1Cc1ccc(C[C@H]2OC(=O)[C@H](CC(C)C)N(C)C(=O)[C@@H](C)OC(=O)[C@H](CC(C)C)N(C)C(=O)[C@@H](Cc3ccc(Cn4ccnc4C)cc3)OC(=O)[C@H](CC(C)C)N(C)C(=O)[C@@H](C)OC(=O)[C@H](CC(C)C)N(C)C2=O)cc1 [Example 6-1, (3S,6R,9S,12R,15S,18R,21S,24R)-3,9,15,21-tetraisobutyl-4,6,10,16,18,22-hexamethyl-12,24-bis[[4-[(2-methylimidazol-1-yl)methyl]phenyl]methyl]-1,7,13,19-tetraoxa-4,10,16,22-tetrazacyclotetracosane-2,5,8,11,14,17,20,23-octaone]",0.001 to 0.01 µM
10,"CC(C)C[C@H]1C(=O)O[C@H](Cc2ccc(Cn3ccnc3)cc2)C(=O)N(C)[C@@H](CC(C)C)C(=O)O[C@H](C)C(=O)N(C)[C@@H](CC(C)C)C(=O)O[C@H](Cc2ccc(Cn3ccnc3)cc2)C(=O)N(C)[C@@H](CC(C)C)C(=O)O[C@H](C)C(=O)N1C [Example 6-2, (3S,6R,9S,12R,15S,18R,21S,24R)-6,18-bis[[4-(imidazol-1-ylmethyl)phenyl]methyl]-3,9,15,21-tetraisobutyl-4,10,12,16,22,24-hexamethyl-1,7,13,19-tetraoxa-4,10,16,22-tetrazacyclotetracosane-2,5,8,11,14,17,20,23-octaone]",0.01 to 0.1 µM
